These results are taken from paper PMC9571063 (Molecules, 2022).

Molecules are shown by their SMILES. “And” between values parts separate entries of the source, which are not always exact repeats. Identical values can stand only once. Counter-ions that a name gives are not always drawn. Like-named read-outs stand apart in the source and are kept apart here. Bounds are passed on as bounds.

One data set deals with T1, CAMK4 (Homo sapiens, UniProt Q16566).
T1 construct: purchased Eurofins DiscoverX KINOMEscan (scanMAX 468)
T1 sequence (Q16566 whole entry): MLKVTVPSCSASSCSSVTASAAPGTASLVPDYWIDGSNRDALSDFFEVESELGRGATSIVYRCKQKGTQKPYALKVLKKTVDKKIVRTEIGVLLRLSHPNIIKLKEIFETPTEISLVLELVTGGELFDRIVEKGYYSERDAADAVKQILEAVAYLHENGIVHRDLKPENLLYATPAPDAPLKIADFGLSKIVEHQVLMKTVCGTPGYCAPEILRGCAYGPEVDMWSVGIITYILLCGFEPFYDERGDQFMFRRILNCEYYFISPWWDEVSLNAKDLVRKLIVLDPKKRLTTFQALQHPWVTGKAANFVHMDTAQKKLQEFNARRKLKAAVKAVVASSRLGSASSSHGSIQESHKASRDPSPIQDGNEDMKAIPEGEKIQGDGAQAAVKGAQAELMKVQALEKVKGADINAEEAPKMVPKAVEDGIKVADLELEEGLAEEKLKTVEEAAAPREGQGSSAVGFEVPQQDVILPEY
Kind of data set: KINOMEscan. Type of data set: binding. The note with it: read-out: Percent Control.

The next data set has as its target T2, CSNK1D (Homo sapiens, UniProt P48730).
T2 construct: purchased Eurofins DiscoverX KINOMEscan (scanMAX 468)
As to the kind of experiment: KINOMEscan. Type of data set: binding. The following applies: read-out: Percent Control.

A further data set has as its target T3, DAPK2 (Homo sapiens, UniProt Q9UIK4).
T3 construct: purchased Eurofins DiscoverX KINOMEscan (scanMAX 468)
As to the kind of experiment: KINOMEscan. Type of data set: binding. The note with it: read-out: Percent Control.

The target in a further data set is T4, EPHA1 (Homo sapiens, UniProt P21709).
T4 construct: purchased Eurofins DiscoverX KINOMEscan (scanMAX 468)
Kind of data set: KINOMEscan. The following applies: read-out: Percent Control. Type of data set: binding.

For the next data set, the target named is T5, EPHA2 (Homo sapiens, UniProt P29317).
T5 construct: purchased Eurofins DiscoverX KINOMEscan (scanMAX 468)
T5 sequence (P29317 24-976): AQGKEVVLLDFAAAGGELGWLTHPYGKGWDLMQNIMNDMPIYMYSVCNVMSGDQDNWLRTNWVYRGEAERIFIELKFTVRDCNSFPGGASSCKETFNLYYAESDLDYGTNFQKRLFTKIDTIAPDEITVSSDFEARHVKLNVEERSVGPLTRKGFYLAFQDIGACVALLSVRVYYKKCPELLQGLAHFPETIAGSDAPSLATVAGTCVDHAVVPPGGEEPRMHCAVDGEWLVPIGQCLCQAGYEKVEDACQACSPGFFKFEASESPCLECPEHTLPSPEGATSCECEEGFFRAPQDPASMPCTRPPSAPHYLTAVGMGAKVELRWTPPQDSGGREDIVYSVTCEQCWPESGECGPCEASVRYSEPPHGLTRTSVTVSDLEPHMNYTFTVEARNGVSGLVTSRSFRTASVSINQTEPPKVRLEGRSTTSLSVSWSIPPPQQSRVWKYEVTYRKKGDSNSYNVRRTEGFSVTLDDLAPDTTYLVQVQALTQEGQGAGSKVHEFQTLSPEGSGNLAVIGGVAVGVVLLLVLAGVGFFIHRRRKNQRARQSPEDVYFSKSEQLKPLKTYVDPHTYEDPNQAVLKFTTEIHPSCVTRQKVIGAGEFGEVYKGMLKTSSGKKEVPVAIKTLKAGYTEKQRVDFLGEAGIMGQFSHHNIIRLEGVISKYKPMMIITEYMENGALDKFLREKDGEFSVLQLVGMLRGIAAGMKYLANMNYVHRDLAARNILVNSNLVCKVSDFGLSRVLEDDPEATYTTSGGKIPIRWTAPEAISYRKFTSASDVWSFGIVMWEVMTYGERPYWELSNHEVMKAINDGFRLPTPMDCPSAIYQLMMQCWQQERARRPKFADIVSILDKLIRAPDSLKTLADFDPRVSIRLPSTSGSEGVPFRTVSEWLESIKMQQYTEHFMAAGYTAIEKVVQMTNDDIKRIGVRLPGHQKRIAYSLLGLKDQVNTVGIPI
As to the kind of experiment: KINOMEscan. Type of data set: binding. The note with it: read-out: Percent Control.

The target of the next data set is T6, EPHA3 (Homo sapiens, UniProt P29320).
T6 construct: purchased Eurofins DiscoverX KINOMEscan (scanMAX 468)
T6 sequence (P29320 21-983): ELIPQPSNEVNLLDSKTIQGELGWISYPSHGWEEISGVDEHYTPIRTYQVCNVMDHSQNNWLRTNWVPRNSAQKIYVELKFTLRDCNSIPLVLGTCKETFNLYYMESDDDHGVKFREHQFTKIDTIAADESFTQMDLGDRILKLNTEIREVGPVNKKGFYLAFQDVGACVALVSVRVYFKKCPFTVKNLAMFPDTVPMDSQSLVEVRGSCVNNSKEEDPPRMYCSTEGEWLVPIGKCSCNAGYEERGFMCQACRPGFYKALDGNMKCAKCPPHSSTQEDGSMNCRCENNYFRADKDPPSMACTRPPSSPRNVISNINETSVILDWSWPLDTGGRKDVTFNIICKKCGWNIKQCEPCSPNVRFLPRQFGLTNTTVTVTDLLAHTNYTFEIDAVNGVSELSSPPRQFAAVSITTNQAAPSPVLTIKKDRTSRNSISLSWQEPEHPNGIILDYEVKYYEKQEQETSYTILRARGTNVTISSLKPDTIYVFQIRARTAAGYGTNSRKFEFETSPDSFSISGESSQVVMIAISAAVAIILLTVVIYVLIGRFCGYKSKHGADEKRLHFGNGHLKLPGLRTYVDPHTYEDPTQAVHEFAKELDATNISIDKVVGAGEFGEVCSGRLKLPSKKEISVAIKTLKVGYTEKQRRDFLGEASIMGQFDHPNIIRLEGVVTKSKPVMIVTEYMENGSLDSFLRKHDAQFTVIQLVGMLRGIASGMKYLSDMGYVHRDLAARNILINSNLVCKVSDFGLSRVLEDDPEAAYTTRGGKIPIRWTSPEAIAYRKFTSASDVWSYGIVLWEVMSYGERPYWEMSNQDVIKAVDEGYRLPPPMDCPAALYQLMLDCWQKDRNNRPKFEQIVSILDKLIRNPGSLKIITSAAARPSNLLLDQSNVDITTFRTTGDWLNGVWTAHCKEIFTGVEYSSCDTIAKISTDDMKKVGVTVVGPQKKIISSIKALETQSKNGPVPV
Kind of data set: KINOMEscan. Type of data set: binding. The following applies: read-out: Percent Control.

A further data set deals with T7, GRK7 (Homo sapiens, UniProt Q8WTQ7).
T7 construct: purchased Eurofins DiscoverX KINOMEscan (scanMAX 468)
Kind of data set: KINOMEscan. The note with it: read-out: Percent Control. Type of data set: binding.

Another data set deals with T8, HIPK1 (Homo sapiens, UniProt Q86Z02).
T8 construct: purchased Eurofins DiscoverX KINOMEscan (scanMAX 468)
Kind of data set: KINOMEscan. Type of data set: binding. The note with it: read-out: Percent Control.

A further data set deals with T9, LIMK1 (Homo sapiens, UniProt P53667).
T9 construct: purchased Eurofins DiscoverX KINOMEscan (scanMAX 468)
Kind of data set: KINOMEscan. Type of data set: binding. The following applies: read-out: Percent Control.

A further data set addresses T10, MEK4 (Homo sapiens, UniProt P45985).
T10 construct: purchased Eurofins DiscoverX KINOMEscan (scanMAX 468)
Kind of data set: KINOMEscan. Type of data set: binding. The note with it: read-out: Percent Control.

The next data set concerns the target T11, MYLK4 (Homo sapiens, UniProt Q86YV6).
T11 construct: purchased Eurofins DiscoverX KINOMEscan (scanMAX 468)
As to the kind of experiment: KINOMEscan. The note with it: read-out: Percent Control. Type of data set: binding.

The next data set has as its target T12, PIK3CB (Homo sapiens, UniProt P42338).
T12 construct: purchased Eurofins DiscoverX KINOMEscan (scanMAX 468)
As to the kind of experiment: KINOMEscan. Type of data set: binding. The following applies: read-out: Percent Control.

In a further data set the target is T13, PIM2 (Homo sapiens, UniProt Q9P1W9).
T13 construct: purchased Eurofins DiscoverX KINOMEscan (scanMAX 468)
Kind of data set: KINOMEscan. Type of data set: binding. The following applies: read-out: Percent Control.

In another data set the target is T14, PRKD1 (Homo sapiens, UniProt Q15139).
T14 construct: purchased Eurofins DiscoverX KINOMEscan (scanMAX 468)
Kind of data set: KINOMEscan. Type of data set: binding. The note with it: read-out: Percent Control.

The target of data set [1] is T15, RSK2(Kin.Dom.1-N-terminal) (Homo sapiens, UniProt P51812).
T15 construct: RSK2(Kin.Dom.1-N-terminal); purchased Eurofins DiscoverX KINOMEscan (scanMAX 468)
T15 sequence (P51812 1-397 limits assumed): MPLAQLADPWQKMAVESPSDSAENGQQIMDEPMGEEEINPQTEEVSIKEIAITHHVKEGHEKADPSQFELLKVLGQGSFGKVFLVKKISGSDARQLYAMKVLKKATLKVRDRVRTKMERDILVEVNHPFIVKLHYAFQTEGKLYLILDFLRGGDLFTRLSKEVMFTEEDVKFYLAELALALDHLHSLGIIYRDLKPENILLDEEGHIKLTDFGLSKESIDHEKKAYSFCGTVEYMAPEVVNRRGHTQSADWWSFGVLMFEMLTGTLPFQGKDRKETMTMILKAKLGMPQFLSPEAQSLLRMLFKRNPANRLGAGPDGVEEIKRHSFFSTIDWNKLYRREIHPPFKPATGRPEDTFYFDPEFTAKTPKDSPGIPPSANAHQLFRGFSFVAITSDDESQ
Kind of data set: KINOMEscan. Type of data set: binding. The note with it: read-out: Percent Control.

The target of the next data set is T16, SgK110 (Homo sapiens, UniProt P0C264).
T16 construct: purchased Eurofins DiscoverX KINOMEscan (scanMAX 468)
Kind of data set: KINOMEscan. Type of data set: binding. The following applies: read-out: Percent Control.

In another data set the target is T17, SGK2 (Homo sapiens, UniProt Q9HBY8).
T17 construct: purchased Eurofins DiscoverX KINOMEscan (scanMAX 468)
As to the kind of experiment: KINOMEscan. Type of data set: binding. The note with it: read-out: Percent Control.

The target of the next data set is T18, SIK (Homo sapiens, UniProt P57059).
T18 construct: purchased Eurofins DiscoverX KINOMEscan (scanMAX 468)
Kind of data set: KINOMEscan. Type of data set: binding. The following applies: read-out: Percent Control.

The next data set concerns the target T19, TIE2 (Homo sapiens, UniProt Q02763).
T19 construct: purchased Eurofins DiscoverX KINOMEscan (scanMAX 468)
As to the kind of experiment: KINOMEscan. Type of data set: binding. The following applies: read-out: Percent Control.

Another data set addresses T20, ULK2 (Homo sapiens, UniProt Q8IYT8).
T20 construct: purchased Eurofins DiscoverX KINOMEscan (scanMAX 468)
As to the kind of experiment: KINOMEscan. The note with it: read-out: Percent Control. Type of data set: binding.

A further data set addresses T21, VPS34 (Homo sapiens, UniProt Q8NEB9).
T21 construct: purchased Eurofins DiscoverX KINOMEscan (scanMAX 468)
Kind of data set: KINOMEscan. The note with it: read-out: Percent Control. Type of data set: binding.

Another data set has as its target T22, Hs_PIM1 (Homo sapiens, UniProt P11309).
T22 construct: host or cells: Sf9 insect cells (baculovirus)
As to the kind of experiment: ADP-Glo kinase assay, primary screen. Type of data set: biochemical. The note with it: n=2, read-out: % of residual activity Hs_PIM1.

A short description of data set [2]: cytotoxic assay, nuclei count (Hoechst, HCS). The following applies: human, 48 h treatment. Type of data set: cell-based.
The subject of another data set is Human skin fibroblasts. Kind of data set: cytotoxic assay, nuclei count (Hoechst, HCS). Type of data set: cell-based. The note with it: summary of Table S2.
Another data set deals with T23, HsCLK2 (Homo sapiens, UniProt P49760).
T23 construct: purchased Eurofins (contract assay)
T23 sequence (P49760 whole entry): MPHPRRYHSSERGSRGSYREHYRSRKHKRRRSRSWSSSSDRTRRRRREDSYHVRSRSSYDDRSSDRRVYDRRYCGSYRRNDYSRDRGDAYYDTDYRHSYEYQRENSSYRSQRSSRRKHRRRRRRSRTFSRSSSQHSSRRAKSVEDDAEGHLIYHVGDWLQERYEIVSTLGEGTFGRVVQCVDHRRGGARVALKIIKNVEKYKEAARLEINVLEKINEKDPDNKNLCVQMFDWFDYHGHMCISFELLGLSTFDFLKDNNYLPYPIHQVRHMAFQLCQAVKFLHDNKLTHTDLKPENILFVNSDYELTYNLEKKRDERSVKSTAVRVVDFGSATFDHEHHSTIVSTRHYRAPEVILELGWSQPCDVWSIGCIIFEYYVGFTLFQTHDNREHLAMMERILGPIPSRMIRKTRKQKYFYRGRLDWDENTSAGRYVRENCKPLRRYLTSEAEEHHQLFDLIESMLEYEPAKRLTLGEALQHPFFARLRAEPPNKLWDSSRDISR
As to the kind of experiment: kinase inhibition study by Eurofins. Type of data set: biochemical. The following applies: duplicate. As for the experimental part:
(§1) Several inhibition studies for human kinases (HsCLK2, HsCLK3, HsCLK4), as well as the KINOMEscan^SM Assaywere performed by the Eurofins company, following protocols reported on their website.

A further data set concerns the target T24, HsCLK3 (Homo sapiens, UniProt P49761).
T24 construct: purchased Eurofins (contract assay)
Kind of data set: kinase inhibition study by Eurofins. Type of data set: biochemical. The following applies: duplicate. As for the experimental part:
as §1

In a further data set the target is T25, HsCLK4 (Homo sapiens, UniProt Q9HAZ1).
T25 construct: purchased Eurofins (contract assay)
T25 sequence (Q9HAZ1 whole entry): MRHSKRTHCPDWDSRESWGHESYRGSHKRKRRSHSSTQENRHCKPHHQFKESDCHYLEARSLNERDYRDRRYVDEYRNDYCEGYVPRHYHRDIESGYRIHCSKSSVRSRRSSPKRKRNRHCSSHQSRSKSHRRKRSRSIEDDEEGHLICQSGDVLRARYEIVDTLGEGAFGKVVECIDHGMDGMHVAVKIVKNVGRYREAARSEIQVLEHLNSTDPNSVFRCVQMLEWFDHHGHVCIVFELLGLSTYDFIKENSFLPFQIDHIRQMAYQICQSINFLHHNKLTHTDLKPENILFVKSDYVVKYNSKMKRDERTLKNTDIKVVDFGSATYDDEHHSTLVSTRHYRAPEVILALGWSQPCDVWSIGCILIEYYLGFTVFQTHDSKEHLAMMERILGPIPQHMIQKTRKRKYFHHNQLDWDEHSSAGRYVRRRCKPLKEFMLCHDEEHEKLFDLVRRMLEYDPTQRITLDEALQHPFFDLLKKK
As to the kind of experiment: kinase inhibition study by Eurofins. Type of data set: biochemical. As for the experimental part: as §1

The mark [3] stands for this setting: HCT116 cells (colorectal adenocarcinoma), read-out: Cytotoxic studies IC50 HCT116.
The mark [4] stands for this setting: MDA-MB-468 cells (breast carcinoma), read-out: Cytotoxic studies IC50 MDA-MB-468.

T22 sequence (P11309 whole entry): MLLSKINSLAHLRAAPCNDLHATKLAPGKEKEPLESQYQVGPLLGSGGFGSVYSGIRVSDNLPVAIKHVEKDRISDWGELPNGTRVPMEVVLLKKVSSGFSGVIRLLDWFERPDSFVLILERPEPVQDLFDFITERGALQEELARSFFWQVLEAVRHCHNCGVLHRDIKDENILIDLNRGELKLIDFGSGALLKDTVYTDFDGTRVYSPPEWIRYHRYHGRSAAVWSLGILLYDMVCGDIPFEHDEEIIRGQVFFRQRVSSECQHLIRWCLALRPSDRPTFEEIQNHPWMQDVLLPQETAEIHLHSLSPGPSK
T24 sequence (P49761 whole entry): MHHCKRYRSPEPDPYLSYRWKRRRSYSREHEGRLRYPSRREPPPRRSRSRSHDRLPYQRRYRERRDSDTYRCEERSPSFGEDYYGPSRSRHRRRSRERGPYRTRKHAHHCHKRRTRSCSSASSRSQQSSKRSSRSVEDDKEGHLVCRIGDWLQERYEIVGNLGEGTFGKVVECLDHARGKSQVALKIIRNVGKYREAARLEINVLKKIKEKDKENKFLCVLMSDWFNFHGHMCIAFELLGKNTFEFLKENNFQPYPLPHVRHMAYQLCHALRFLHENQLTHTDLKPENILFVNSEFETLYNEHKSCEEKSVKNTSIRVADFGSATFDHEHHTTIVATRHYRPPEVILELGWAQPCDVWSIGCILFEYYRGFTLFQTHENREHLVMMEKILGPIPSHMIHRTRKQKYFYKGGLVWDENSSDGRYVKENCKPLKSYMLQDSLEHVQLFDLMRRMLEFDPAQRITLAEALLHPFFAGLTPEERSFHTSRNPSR
T3 sequence (Q9UIK4 whole entry): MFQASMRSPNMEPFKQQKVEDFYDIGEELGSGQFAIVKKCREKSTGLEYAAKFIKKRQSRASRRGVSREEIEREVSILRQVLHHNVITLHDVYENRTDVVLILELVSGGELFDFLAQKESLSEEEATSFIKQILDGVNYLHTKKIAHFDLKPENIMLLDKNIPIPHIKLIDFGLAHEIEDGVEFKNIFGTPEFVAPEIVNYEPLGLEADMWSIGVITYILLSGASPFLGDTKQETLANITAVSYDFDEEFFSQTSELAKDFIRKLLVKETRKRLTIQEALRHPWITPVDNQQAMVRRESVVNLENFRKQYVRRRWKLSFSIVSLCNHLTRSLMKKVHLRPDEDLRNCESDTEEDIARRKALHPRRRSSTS

Take `Cc1ccc(-n2cc(COc3cccc4cnc(Nc5cccc(Cl)c5)nc34)nn2)c([N+](=O)[O-])c1` [DB18]: the remaining binding at 1 µM on CAMK4 was determined as 100%; on CSNK1D it was 100%; at DAPK2 it was 100%; at EPHA1, 95%; on EPHA2, 100%; at EPHA3 it was 100%. The remaining binding at 1 µM at GRK7 is 100%; on HIPK1 it was 19%; on LIMK1, 100%; on MEK4, 100%; at MYLK4, 94%; on PIK3CB, 100%. Moreover, the remaining binding at 1 µM is 100% on PIM2; 100% at PRKD1; 100% in data set [1]; 85% on SgK110; 100% on SGK2; 95% at SIK. Besides, the remaining binding at 1 µM at TIE2, on ULK2 and on VPS34 was 100% each time.
In the case of `COC(=O)c1ccc(-n2cc(COc3cccc4cnc(Nc5cccc(Cl)c5)nc34)nn2)c([N+](=O)[O-])c1` [12f, Methyl 4-(4-(((2-((3-chlorophenyl)amino)quinazolin-8-yl)oxy)methyl)-1H-1,2,3-triazol-1-yl)-3-nitrobenzoate], on Hs_PIM1, the remaining activity at 1 µM was 73% and the remaining activity at 10 µM was determined as 66%. For the same molecule, in [2] (setting [3]), the half-maximal inhibitory concentration (IC50) at 48 h was above 25000 nM. In addition, in data set [2] (setting [4]), the IC50 at 48 h is above 25000 nM. The “toxicity towards fibroblasts” value in the data set on Human skin fibroblasts is “non-active”.
For `Cc1ccc(-n2cc(COc3cccc4cnc(Nc5cc(Cl)cc(Cl)c5)nc34)nn2)c([N+](=O)[O-])c1` [7b, N-(3,5-dichlorophenyl)-8-((1-(4-methyl-2-nitrophenyl)-1H-1,2,3-triazol-4-yl)methoxy)quinazolin-2-amine], the values for the IC50 against HsCLK2, on HsCLK3 and against HsCLK4 (duplicate) were 97 nM, 3310 nM and 380 nM, respectively. In addition, on Hs_PIM1, the remaining activity at 1 µM turned out to be 87%. In addition, the remaining activity at 10 µM on Hs_PIM1 was found to be 84%. The concentration for half-maximal inhibition (IC50) at 48 h in data set [2] (setting [3]) and in data set [2] (setting [4]) was above 25000 nM each time. The “toxicity towards fibroblasts” value with Human skin fibroblasts was “non-toxic”.
Regarding `O=[N+]([O-])c1cc(CO)ccc1-n1cc(COc2cccc3cnc(Nc4cccc(Cl)c4)nc23)nn1` [12e, 4-(4-(((2-((3-Chlorophenyl)amino)quinazolin-8-yl)oxy)methyl)-1H-1,2,3-triazol-1-yl)-3-nitrobenzyl alcohol], the 50% inhibitory concentration (IC50) against HsCLK2 was 50 nM; against HsCLK3, 7500 nM and 7490 nM; against HsCLK4 it was 150 to 200 nM; at HsCLK4 (duplicate) it was 195 nM. The remaining activity at 1 µM at Hs_PIM1 is 96%. Also, on Hs_PIM1, the remaining activity at 10 µM is 69%. The 50% inhibitory concentration (IC50) at 48 h in data set [2] (setting [3]) was 3000 nM; in [2] (setting [4]) it was 4000 nM. Moreover, the “toxicity towards fibroblasts” value in the data set with Human skin fibroblasts is “moderate toxicity”.
Regarding `O=[N+]([O-])c1cc(Br)ccc1-n1cc(COc2cccc3cnc(Nc4cccc(Cl)c4)nc23)nn1` [12d, N-(3-Chlorophenyl)-8-((1-(4-bromo-2-nitrophenyl)-1H-1,2,3-triazol-4-yl)methoxy)quinazolin-2-amine], on Hs_PIM1, the remaining activity at 1 µM turned out to be 85% and the remaining activity at 10 µM was found to be 70%. Also, in [2] (setting [3]), the IC50 at 48 h was above 25000 nM. In addition, the IC50 at 48 h in data set [2] (setting [4]) was above 25000 nM. In addition, the “toxicity towards fibroblasts” value in the data set with Human skin fibroblasts is “moderate toxicity”.
For the molecule `O=C(O)c1ccc(-n2cc(COc3cccc4cnc(Nc5cccc(Cl)c5)nc34)nn2)c([N+](=O)[O-])c1` [12g, 4-(4-(((2-((3-Chlorophenyl)amino)quinazolin-8-yl)oxy)methyl)-1H-1,2,3-triazol-1-yl)-3-nitrobenzoic acid], the IC50 against HsCLK2 is 28 nM; against HsCLK3, 339 nM; against HsCLK4 (duplicate) it was 55 nM. For the same molecule, on Hs_PIM1, the remaining activity at 1 µM amounted to 66%. For the same molecule, the remaining activity at 10 µM at Hs_PIM1 is 31%. The 50% inhibitory concentration (IC50) at 48 h in data set [2] (setting [3]) and in data set [2] (setting [4]) was above 25000 nM throughout. Besides, in the data set on Human skin fibroblasts, the “toxicity towards fibroblasts” value is “non-active”.
On to `N[C@H]1CC[C@@H](n2cc(COc3cccc4cnc(Nc5cc(Cl)cc(Cl)c5)nc34)nn2)CC1` [16b, 8-((1-((cis)-4-Aminocyclohexyl)-1H-1,2,3-triazol-4-yl)methoxy)-N-(3,5-dichlorophenyl)quinazolin-2-amine hydrochloride], for which the IC50 against HsCLK2 was found to be 20 nM; at HsCLK3 it was 3260 nM; against HsCLK4 (duplicate) it was 83 nM. Moreover, the remaining activity at 1 µM on Hs_PIM1 was 69%. Besides, the remaining activity at 10 µM at Hs_PIM1 was 15%. Further, the concentration for half-maximal inhibition (IC50) at 48 h in data set [2] (setting [3]) was 2400 nM; in data set [2] (setting [4]), 1000 nM.
